Test results: PubChem BioAssay (NCI)
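A five-concentration, 48-hour dose response in 96-well plates underlies each endpoint, interpolated linearly between surrounding concentrations. TGI denotes the concentration required for complete inhibition of growth.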

Tests used:
Test in all cases: NCI-60 cell line screen, 48 h
DMS 273 small cell lung = system: DMS 273 small cell lung
HCT-116 colon = system: HCT-116 colon
HOP-18 NSCLC = system: HOP-18 NSCLC
MALME-3M melanoma = system: MALME-3M melanoma
NCI-H23 lung = system: NCI-H23 lung
NCI-H522 lung = system: NCI-H522 lung
SNB-78 CNS = system: SNB-78 CNS
IGROV1 ovarian = system: IGROV1 ovarian
MDA-MB-435 = system: MDA-MB-435
NCI/ADR-RES ovarian = system: NCI/ADR-RES ovarian
PC-3 prostate = system: PC-3 prostate
LXFL 529 NSCLC = system: LXFL 529 NSCLC

| SMILES | TGI (DMS 273 small cell lung) [µM] | TGI (HCT-116 colon) [µM] | TGI (HOP-18 NSCLC) [µM] | TGI (MALME-3M melanoma) [µM] | TGI (NCI-H23 lung) [µM] | TGI (NCI-H522 lung) [µM] | TGI (SNB-78 CNS) [µM] | TGI (IGROV1 ovarian) [µM] | TGI (MDA-MB-435) [µM] | TGI (NCI/ADR-RES ovarian) [µM] | TGI (PC-3 prostate) [µM] | TGI (LXFL 529 NSCLC) [µM] |
| --- | --- | --- | --- | --- | --- | --- | --- | --- | --- | --- | --- | --- |
| CC1=NN(C(=O)Cc2ccccc2)C(=O)/C1=C\c1ccco1 | > 100 | > 100 | > 100 | > 100 | > 100 | > 100 | > 100 | – | – | – | – | – |
| Cc1nc(C)c(N2CCN(C#N)CC2)c(=O)[nH]1 | – | > 100 | – | > 100 | > 100 | > 100 | – | > 100 | > 100 | > 100 | > 100 | – |
| N#Cc1c2nc3ccccc3nc2n2ccc3ccccc3c12 | > 100 | > 100 | > 100 | > 100 | > 100 | > 100 | > 100 | > 100 | – | – | – | > 100 |
| CC(C)=CCC[C@H](C)[C@H]1CC[C@@H](C)c2cc(O)c(C)cc21 | – | 32.9 | – | 33.4 | 33 | 32.4 | – | 31.4 | 38.8 | 36.7 | 31.3 | – |
| CC[C@]12C=CCN3CCC4(c5cc([C@@]6(C(=O)OC)CC7CN(CCc8c6[nH]c6ccccc86)C[C@@H]6CCC[C@H]76)c(OC)cc5N(C)C4[C@](O)(C(=O)OC)C1OC(C)=O)C32 (some centres undefined) | – | 3.64 | – | > 5.04 | 1.42 | 0.113 | > 2.85 | 7.31 | 0.0249 | 4.75 | > 10 | > 10 |
| C/C(=N\Nc1nc2ccccc2o1)c1ccncn1 | – | > 33.6 | – | 97.5 | > 47.7 | > 32.7 | – | 30.9 | > 75.8 | 0.84 | 36.6 | – |
| COC(=O)CCC(=O)c1ccc2c(c1)CC1(C2)Cc2ccc3c(c2C1)CCCC3=O (centres undefined) | – | > 100 | – | > 68.1 | > 76.5 | > 73.5 | – | > 100 | 19.9 | > 100 | > 79.9 | – |
| O=C(c1ccccc1)c1c(CNCc2ccccc2)n(C(=O)c2ccccc2)c2ccccc12 | > 100 | > 100 | – | > 100 | > 100 | 81.8 | – | > 100 | – | – | – | > 100 |
| CCn1cnc2c(NC(C)=O)ncnc21 | – | > 100 | – | > 100 | > 100 | > 100 | – | > 100 | > 100 | > 100 | > 100 | – |
| CCc1n[nH]c(=O)n1NC(=O)/C=C\C(=O)O | – | > 100 | – | > 100 | > 100 | > 100 | – | > 100 | > 100 | > 100 | > 100 | – |
| CCCCCCCCCCCCP(=O)(O)OCC(N)C(=O)O (centres undefined) | – | 30.3 | – | > 100 | > 100 | > 100 | – | > 100 | 34.6 | > 100 | 36.9 | – |
